According to patent US20100278751A1, “RADIOLABELED 2-AMINO-4-ALKYL-6-(HALOALKYL)PYRIDINE COMPOUNDS AND THEIR USE IN DIAGNOSTIC IMAGING” (WASHINGTON UNIVERSITY, priority 2009, published 2010):
Read-outs that look alike come from different tables or passages of the source. One block for each compound: values may come before it.

Key:
iNOS [1] = biological target: T1, iNOS (Homo sapiens, UniProt P35228); experiment: iNOS activity, nitric oxide synthase screening kit (IC50); format: biochemical
iNOS [2] = biological target: T2, iNOS (Mus musculus, UniProt P29477); experiment: microPET imaging study in LPS-treated and control mice; format: in vivo; details: LPS intratracheally treated mouse vs control mouse
T2 construct: from tissue
Description: Two mice, one intratracheally treated with LPS, and a control mouse, were injected with [^18F]compound 14. […] This difference in tracer accumulation is consistent with the difference in accumulation of iNOS described between LPS-treated and control mice in the preceeding examples.

[3] = Biodistribution in control vs. LPS treated mice; format: in vivo, C57BL/6 mice
Description: This example describes the results of in vivo studies on the biodistribution of iNOS inhibitors. The biodistribution studies were performed in mature male C57BL/6 mice. One group of mice was treated with bacterial lipopolysaccharide (LPS) (10 mg/kg, administered intravenously) to induce iNOS expression, and a control group was left untreated.

[4] = In vitro stability in heparinized rat whole blood; format: in vitro ADME, Sprague-Dawley rat; details: 37° C.
Description: The in vitro stability of [^18F]compound 14 was tested by using heparinized blood from an adult male Sprague-Dawley rat. [^18F]compound 14 was relatively stable in the whole blood for 2 h at 37° C. At 1 h, approximately 80% of the activity recovered from lysed whole blood was observed as [^18F]compound 14, and at 2 h, approximately 75% of the recovered activity was still in the form of [^18F]compound 14.

[5] = In vivo stability (percent parent compound in plasma/blood) in rats; set-up: species or system Sprague-Dawley rats
Description: Adult male Sprague-Dawley rats were injected with [^18F]compound 14, and at 5 and 30 minutes post injection, plasma samples were obtained. Supernatants from the plasma samples were analyzed by silica gel radio-TLC and reversed phase HPLC. After 30 minutes, the percent parent compound was only 20.2%. Additionally, within 5 minutes post injection, only 40.3% of the activity in the blood was [^18F]compound 14, which was confirmed by HPLC co-elution with non-radioactive compound 14. According to the HPLC analysis, the major metabolite, constituting 50% of the activity in blood at 5 minutes post injection, was very polar but was not free [^18F] fluoride. This observation is also consistent with the low bone uptake reported in biodistribution studies.

iNOS [6] = biological target: T1, iNOS; details: cited from earlier work
nNOS = nNOS (Homo sapiens, UniProt P29475); experiment: nNOS selectivity, nitric oxide synthase screening kit (IC50); format: biochemical
Description: (§1) All assays were performed using the nitric oxide synthase screening kit (GE Healthcare Biosciences Corp., Piscataway, N.J.) following the manufacturer's protocols.

eNOS = eNOS (Homo sapiens, UniProt P29474); experiment: eNOS selectivity, nitric oxide synthase screening kit (IC50); format: biochemical
Description: as §1

iNOS [7] = biological target: T2, iNOS; experiment: Blocking studies of tracer uptake in LPS-treated mice; format: in vivo
Description: This example describes blocking studies. […] P., et al., J. Biol. Chem. 272: 4959-4963, 1997). […] At 1 h post injection, % ID in lung was determined.

[8] = iNOS, read-out: IC50 of tested compounds
[9] = iNOS, read-out: IC50 (standards for measuring IC50)
[10] = measured against SEITU, L-NIL and 2-AP as standards, read-out: IC50 for iNOS
[11] = read-out: Selectivity (IC50) iNOS

T1 sequence (P35228 whole entry): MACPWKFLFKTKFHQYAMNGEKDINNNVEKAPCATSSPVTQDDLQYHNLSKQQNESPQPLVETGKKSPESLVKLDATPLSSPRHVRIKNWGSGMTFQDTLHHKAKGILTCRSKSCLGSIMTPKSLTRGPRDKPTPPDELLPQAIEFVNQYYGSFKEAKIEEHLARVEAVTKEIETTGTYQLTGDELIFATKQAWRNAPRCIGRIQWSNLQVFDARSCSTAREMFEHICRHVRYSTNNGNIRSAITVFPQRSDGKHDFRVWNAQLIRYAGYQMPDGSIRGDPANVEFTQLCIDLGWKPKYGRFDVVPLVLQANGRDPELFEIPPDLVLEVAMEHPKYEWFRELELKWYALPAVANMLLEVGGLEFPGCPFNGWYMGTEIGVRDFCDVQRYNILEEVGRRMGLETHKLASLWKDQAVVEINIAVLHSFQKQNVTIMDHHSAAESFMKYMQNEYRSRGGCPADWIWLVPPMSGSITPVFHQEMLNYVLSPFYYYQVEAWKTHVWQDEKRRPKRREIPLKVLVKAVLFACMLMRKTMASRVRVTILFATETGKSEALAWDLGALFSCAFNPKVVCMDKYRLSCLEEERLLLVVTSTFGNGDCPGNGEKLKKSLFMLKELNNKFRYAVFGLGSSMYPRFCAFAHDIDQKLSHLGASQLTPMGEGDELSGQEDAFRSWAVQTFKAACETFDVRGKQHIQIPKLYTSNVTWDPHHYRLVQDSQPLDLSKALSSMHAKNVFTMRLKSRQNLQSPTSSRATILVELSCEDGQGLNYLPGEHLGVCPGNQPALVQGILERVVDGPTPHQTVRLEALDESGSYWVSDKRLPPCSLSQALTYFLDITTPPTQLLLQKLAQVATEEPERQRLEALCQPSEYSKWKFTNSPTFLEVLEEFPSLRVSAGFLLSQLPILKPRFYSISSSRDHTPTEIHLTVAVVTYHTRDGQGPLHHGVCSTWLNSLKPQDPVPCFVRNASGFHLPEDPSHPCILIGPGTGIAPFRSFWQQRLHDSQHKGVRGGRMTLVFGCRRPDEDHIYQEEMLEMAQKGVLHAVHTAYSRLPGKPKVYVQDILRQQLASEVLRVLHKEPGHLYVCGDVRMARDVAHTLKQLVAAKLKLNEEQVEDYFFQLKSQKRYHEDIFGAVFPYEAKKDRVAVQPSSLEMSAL

melting point: 59 to 61 °C | IC50 (iNOS [1]; [8]): 0.193 ± 0.038 µM
Structure (SMILES): Cc1cc(N)nc(CC(C)C)c1 [Compound 11]

Structure (SMILES): Cc1cc(N)nc(CCCCF)c1 [DZ(IV)-120]
IC50 (iNOS [1]; [8]): 0.17 ± 0.0265 µM

Biodistribution Blood ([3]; Control mice, 5 min): 2.37 ± 0.18 % ID/g | Biodistribution Bone ([3]; Control mice, 5 min): 1.52 ± 0.36 % ID/g | Biodistribution Brain ([3]; Control mice, 5 min): 1.60 ± 0.17 % ID/g | Biodistribution Heart ([3]; Control mice, 5 min): 1.50 ± 0.12 % ID/g | Biodistribution Kidney ([3]; Control mice, 5 min): 20.6 ± 2.4 % ID/g | Biodistribution Liver ([3]; Control mice, 5 min): 33.2 ± 3.3 % ID/g | Biodistribution Lung ([3]; Control mice, 5 min): 3.33 ± 0.28 % ID/g | Biodistribution Muscle ([3]; Control mice, 5 min): 1.25 ± 0.06 % ID/g | Biodistribution Blood ([3]; Control mice, 30 min): 1.22 ± 0.16 % ID/g | Biodistribution Bone ([3]; Control mice, 30 min): 2.26 ± 0.55 % ID/g | Biodistribution Brain ([3]; Control mice, 30 min): 0.28 ± 0.02 % ID/g | Biodistribution Heart ([3]; Control mice, 30 min): 0.60 ± 0.05 % ID/g | Biodistribution Kidney ([3]; Control mice, 30 min): 7.30 ± 0.66 % ID/g | Biodistribution Liver ([3]; Control mice, 30 min): 10.7 ± 0.3 % ID/g | Biodistribution Lung ([3]; Control mice, 30 min): 1.14 ± 0.13 % ID/g | Biodistribution Muscle ([3]; Control mice, 30 min): 0.71 ± 0.31 % ID/g | Biodistribution Blood ([3]; Control mice, 1 h): 0.31 ± 0.04 % ID/g | Biodistribution Bone ([3]; Control mice, 1 h): 2.57 ± 0.64 % ID/g | Biodistribution Brain ([3]; Control mice, 1 h): 0.11 ± 0.02 % ID/g | Biodistribution Heart ([3]; Control mice, 1 h): 0.19 ± 0.02 % ID/g | Biodistribution Kidney ([3]; Control mice, 1 h): 2.20 ± 0.25 % ID/g | Biodistribution Liver ([3]; Control mice, 1 h): 2.59 ± 0.49 % ID/g | Biodistribution Lung ([3]; Control mice, 1 h): 0.31 ± 0.06 % ID/g | Biodistribution Muscle ([3]; Control mice, 1 h): 0.27 ± 0.18 % ID/g | Biodistribution Blood ([3]; Control mice, 2 h): 0.27 ± 0.22 % ID/g | Biodistribution Bone ([3]; Control mice, 2 h): 5.59 ± 4.20 % ID/g | Biodistribution Brain ([3]; Control mice, 2 h): 0.07 ± 0.03 % ID/g | Biodistribution Heart ([3]; Control mice, 2 h): 0.08 ± 0.02 % ID/g | Biodistribution Kidney ([3]; Control mice, 2 h): 0.80 ± 0.27 % ID/g | Biodistribution Liver ([3]; Control mice, 2 h): 0.74 ± 0.23 % ID/g | Biodistribution Lung ([3]; Control mice, 2 h): 0.15 ± 0.03 % ID/g | Biodistribution Muscle ([3]; Control mice, 2 h): 0.34 ± 0.27 % ID/g | Biodistribution Blood ([3]; LPS treated mice, 5 min): 3.69 ± 0.38 % ID/g | Biodistribution Bone ([3]; LPS treated mice, 5 min): 1.59 ± 0.15 % ID/g | Biodistribution Brain ([3]; LPS treated mice, 5 min): 1.81 ± 0.09 % ID/g | Biodistribution Heart ([3]; LPS treated mice, 5 min): 2.03 ± 0.06 % ID/g | Biodistribution Kidney ([3]; LPS treated mice, 5 min): 26.7 ± 4.1 % ID/g | Biodistribution Liver ([3]; LPS treated mice, 5 min): 24.6 ± 3.1 % ID/g | Biodistribution Lung ([3]; LPS treated mice, 5 min): 4.32 ± 0.32 % ID/g | Biodistribution Muscle ([3]; LPS treated mice, 5 min): 1.64 ± 0.09 % ID/g | Biodistribution Blood ([3]; LPS treated mice, 30 min): 2.09 ± 0.35 % ID/g | Biodistribution Bone ([3]; LPS treated mice, 30 min): 3.70 ± 1.20 % ID/g | Biodistribution Brain ([3]; LPS treated mice, 30 min): 0.52 ± 0.15 % ID/g | Biodistribution Heart ([3]; LPS treated mice, 30 min): 1.02 ± 0.16 % ID/g | Biodistribution Kidney ([3]; LPS treated mice, 30 min): 10.9 ± 2.8 % ID/g | Biodistribution Liver ([3]; LPS treated mice, 30 min): 7.06 ± 0.28 % ID/g | Biodistribution Lung ([3]; LPS treated mice, 30 min): 1.84 ± 0.27 % ID/g | Biodistribution Muscle ([3]; LPS treated mice, 30 min): 1.06 ± 0.40 % ID/g | Biodistribution Blood ([3]; LPS treated mice, 1 h): 0.86 ± 0.09 % ID/g | Biodistribution Bone ([3]; LPS treated mice, 1 h): 4.30 ± 0.90 % ID/g | Biodistribution Brain ([3]; LPS treated mice, 1 h): 0.19 ± 0.03 % ID/g | Biodistribution Heart ([3]; LPS treated mice, 1 h): 0.41 ± 0.10 % ID/g | Biodistribution Kidney ([3]; LPS treated mice, 1 h): 3.95 ± 0.53 % ID/g | Biodistribution Liver ([3]; LPS treated mice, 1 h): 2.63 ± 0.52 % ID/g | Biodistribution Lung ([3]; LPS treated mice, 1 h): 0.73 ± 0.17 % ID/g | Biodistribution Muscle ([3]; LPS treated mice, 1 h): 0.78 ± 0.47 % ID/g | Biodistribution Blood ([3]; LPS treated mice, 2 h): 0.23 ± 0.05 % ID/g | Biodistribution Bone ([3]; LPS treated mice, 2 h): 3.77 ± 1.41 % ID/g | Biodistribution Brain ([3]; LPS treated mice, 2 h): 0.07 ± 0.03 % ID/g | Biodistribution Heart ([3]; LPS treated mice, 2 h): 0.12 ± 0.04 % ID/g | Biodistribution Kidney ([3]; LPS treated mice, 2 h): 0.91 ± 0.63 % ID/g | Biodistribution Liver ([3]; LPS treated mice, 2 h): 0.42 ± 0.15 % ID/g | Biodistribution Lung ([3]; LPS treated mice, 2 h): 0.18 ± 0.09 % ID/g | Biodistribution Muscle ([3]; LPS treated mice, 2 h): 0.23 ± 0.13 % ID/g | activity recovered from lysed whole blood observed as parent ([4]; 1 h): approximately 80% | recovered activity still in the form of parent ([4]; 2 h): approximately 75% | activity in the blood that was parent compound ([5]; 5 minutes post injection): 40.3% | major (very polar) metabolite, share of the activity in blood ([5]; 5 minutes post injection, HPLC): 50% | percent parent compound ([5]; plasma, 30 minutes post injection): 20.2%
Structure (SMILES): Cc1cc(N)nc(CC(C)[18F])c1 (stereo not shown) [[^18F]compound 14]
tracer accumulation in lungs (microPET) (iNOS [2]): accumulated in the lungs of the LPS-treated mouse, but not in the control mouse | tracer uptake, LPS-treated vs non-treated mice ([3]; LPS 10 mg/kg intravenously, Table 4 and FIG. 11): greater uptake

IC50 (iNOS [1]; [8]): 0.282 ± 0.0486 µM
Structure (SMILES): C/C=C/c1cc(C)cc(N)n1 [DZ(III)-73]

IC50 (iNOS [1]; [9]): 0.108 ± 0.0345 µM
Structure (SMILES): Nc1ncc2[nH]cnc2n1 [Compound 2-AP, 2-aminopurine, reference compound]
IC50 (iNOS [6]; reported value for standards): 0.17 µM

Structure (SMILES): Cc1cc(N)nc(CCCF)c1 [Compound 52]
IC50 (nNOS): 0.514 ± 0.0833 µM | IC50 (eNOS): 1.43 ± 0.158 µM | IC50 (iNOS [1]; [8]): 0.0576 ± 0.0053 µM | IC50 (iNOS [1]; [10]): < 0.19 µM | IC50 (iNOS [1]; [11]): 0.0576 ± 0.0053 µM

IC50 (iNOS [1]; [8]): 0.685 ± 0.127 µM
Structure (SMILES): CC(C)=Cc1cc(C)cc(N)n1 [Compound 25]

tracer uptake in the lungs and blood blocked (iNOS [7]; blocker 5 mg/kg i.v. immediately before [18F]compound 14, 1 h post injection): 32%
Structure (SMILES): CC(=N)NCc1cccc(CN)c1 [1400 W, N-(3-(aminomethyl)benzyl)acetamidine]

IC50 (nNOS): 0.493 ± 0.0808 µM | IC50 (eNOS): 1.52 ± 0.3 µM | IC50 (iNOS [1]; [8]): 0.0543 ± 0.0089 µM | IC50 (iNOS [1]; [10]): < 0.19 µM | IC50 (iNOS [1]; [11]): 0.0543 ± 0.0089 µM
Structure (SMILES): Cc1cc(N)nc(CC(C)F)c1 (stereo not shown) [Compound 14]

IC50 (iNOS [1]; [8]): 1.78 ± 0.395 µM
Structure (SMILES): Cc1cc(N)nc(CC(C)O)c1 (stereo not shown) [DZ(III)-77/Compound 14]

blocking of increased uptake of [18F]compound 14 (iNOS [7]; blocker 10 mg/kg intravenously): failed to block
Structure (SMILES): Cc1ccnc(N)c1 [2-amino-4-methylpyridine]

Structure (SMILES): Cc1cc(N)nc(CC(C)CCF)c1 (stereo not shown) [DZ(IV)-93]
IC50 (iNOS [1]; [8]): 0.731 ± 0.087 µM

IC50 (iNOS [1]; [9]): 0.0305 ± 0.0046 µM
Structure (SMILES): CCSC(=N)N [SEITU, S-ethylisothiourea, reference compound]
Ki (iNOS [6]; reported value): 0.032 µM
